Laboratory results as given in the kinase profiling compilation of Christmann-Franck et al. (2016).

Key:
Experiment in all cases: KINOMEscan competition binding
Conditions in all cases: compound 10.0 µM
KIT (human) = KIT (human) (UniProt P10721)
MARK4 (human) = MARK4 (human) (UniProt Q96L34)
PI4KB (human) = PI4KB (human) (UniProt Q9UBF8)
ANKK1 (human) = ANKK1 (human) (UniProt Q8NFD2)
HIPK4 (human) = HIPK4 (human) (UniProt Q8NE63)
MAP2K1 (human) = MAP2K1 (human) (UniProt Q02750)
DYRK1B (human) = DYRK1B (human) (UniProt Q9Y463)
MAPK8 (human) = MAPK8 (human) (UniProt P45983)
MATK (human) = MATK (human) (UniProt P42679)
STK17B (human) = STK17B (human) (UniProt O94768)
CDC42BPG (human) = CDC42BPG (human) (UniProt Q6DT37)
PIK3CG (human) = PIK3CG (human) (UniProt P48736)
CAMK4 (human) = CAMK4 (human) (UniProt Q16566)
SYK (human) = SYK (human) (UniProt P43405)
PIP4K2C (human) = PIP4K2C (human) (UniProt Q8TBX8)
EPHB1 (human) = EPHB1 (human) (UniProt P54762)
NUAK2 (human) = NUAK2 (human) (UniProt Q9H093)
LRRK2 (human) = LRRK2 (human) (UniProt Q5S007)
SBK1 (human) = SBK1 (human) (UniProt Q52WX2)
PRKCI (human) = PRKCI (human) (UniProt P41743)
RIPK1 (human) = RIPK1 (human) (UniProt Q13546)
IRAK3 (human) = IRAK3 (human) (UniProt Q9Y616)
ERN1 (human) = ERN1 (human) (UniProt O75460)
EPHA5 (human) = EPHA5 (human) (UniProt P54756)
[1] = tested on: KIT (human), P10721 [L576P]
GRK7 (human) = GRK7 (human) (UniProt Q8WTQ7)
[2] = biological target: TYK2 JH2 pseudokinase (human) (UniProt P29597)
MAP2K7 (human) = MAP2K7 (human) (UniProt O14733)
CSNK2A2 (human) = CSNK2A2 (human) (UniProt P19784)
DAPK3 (human) = DAPK3 (human) (UniProt O43293)
MTOR (human) = MTOR (human) (UniProt P42345)
DCLK1 (human) = DCLK1 (human) (UniProt O15075)
PLK2 (human) = PLK2 (human) (UniProt Q9NYY3)
ZAP70 (human) = ZAP70 (human) (UniProt P43403)
MAP3K3 (human) = MAP3K3 (human) (UniProt Q99759)
EPHA1 (human) = EPHA1 (human) (UniProt P21709)
BRAF (human) = BRAF (human) (UniProt P15056)
IKBKB (human) = IKBKB (human) (UniProt O14920)
CDK11B (human) = CDK11B (human) (UniProt P21127)
PAK7 (human) = PAK7 (human) (UniProt Q9P286)

EPHA5 (human), sequence (P54756 whole entry, looked up): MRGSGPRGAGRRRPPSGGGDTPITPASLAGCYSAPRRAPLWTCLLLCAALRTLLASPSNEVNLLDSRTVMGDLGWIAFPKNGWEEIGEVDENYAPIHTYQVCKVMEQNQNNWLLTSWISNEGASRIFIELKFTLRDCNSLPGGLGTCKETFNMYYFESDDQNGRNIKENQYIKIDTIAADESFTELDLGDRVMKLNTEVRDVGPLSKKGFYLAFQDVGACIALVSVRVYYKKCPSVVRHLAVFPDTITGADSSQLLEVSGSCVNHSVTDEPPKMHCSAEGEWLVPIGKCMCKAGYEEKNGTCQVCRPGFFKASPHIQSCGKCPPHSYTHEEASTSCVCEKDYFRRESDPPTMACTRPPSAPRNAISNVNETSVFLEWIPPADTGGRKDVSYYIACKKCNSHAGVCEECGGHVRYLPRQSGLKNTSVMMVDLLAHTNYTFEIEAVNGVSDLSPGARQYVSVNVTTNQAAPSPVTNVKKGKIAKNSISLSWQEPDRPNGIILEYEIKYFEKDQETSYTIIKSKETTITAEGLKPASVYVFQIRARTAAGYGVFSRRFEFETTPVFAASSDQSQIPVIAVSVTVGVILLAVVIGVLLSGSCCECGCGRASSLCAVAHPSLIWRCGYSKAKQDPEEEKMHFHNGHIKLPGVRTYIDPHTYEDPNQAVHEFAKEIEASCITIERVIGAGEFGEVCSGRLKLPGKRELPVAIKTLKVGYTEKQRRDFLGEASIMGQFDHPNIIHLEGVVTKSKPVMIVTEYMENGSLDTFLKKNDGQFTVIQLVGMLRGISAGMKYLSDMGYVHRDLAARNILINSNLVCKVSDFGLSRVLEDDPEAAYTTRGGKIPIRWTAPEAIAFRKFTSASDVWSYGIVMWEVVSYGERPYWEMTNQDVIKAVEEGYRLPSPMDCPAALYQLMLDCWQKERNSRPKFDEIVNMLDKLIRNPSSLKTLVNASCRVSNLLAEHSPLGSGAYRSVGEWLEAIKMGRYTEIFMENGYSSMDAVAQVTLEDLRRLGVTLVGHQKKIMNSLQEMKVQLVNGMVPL
STK17B (human), sequence (O94768 whole entry, looked up): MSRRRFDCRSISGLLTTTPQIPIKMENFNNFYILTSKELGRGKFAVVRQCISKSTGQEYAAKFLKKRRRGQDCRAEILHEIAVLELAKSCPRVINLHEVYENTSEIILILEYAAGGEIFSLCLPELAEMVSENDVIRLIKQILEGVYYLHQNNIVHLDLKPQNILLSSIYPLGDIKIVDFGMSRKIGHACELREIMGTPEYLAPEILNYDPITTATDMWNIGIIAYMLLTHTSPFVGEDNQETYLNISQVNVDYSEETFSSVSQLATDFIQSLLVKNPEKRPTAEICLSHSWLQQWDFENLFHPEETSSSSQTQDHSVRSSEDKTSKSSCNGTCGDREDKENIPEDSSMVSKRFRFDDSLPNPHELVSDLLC
ZAP70 (human), sequence (P43403 whole entry, looked up): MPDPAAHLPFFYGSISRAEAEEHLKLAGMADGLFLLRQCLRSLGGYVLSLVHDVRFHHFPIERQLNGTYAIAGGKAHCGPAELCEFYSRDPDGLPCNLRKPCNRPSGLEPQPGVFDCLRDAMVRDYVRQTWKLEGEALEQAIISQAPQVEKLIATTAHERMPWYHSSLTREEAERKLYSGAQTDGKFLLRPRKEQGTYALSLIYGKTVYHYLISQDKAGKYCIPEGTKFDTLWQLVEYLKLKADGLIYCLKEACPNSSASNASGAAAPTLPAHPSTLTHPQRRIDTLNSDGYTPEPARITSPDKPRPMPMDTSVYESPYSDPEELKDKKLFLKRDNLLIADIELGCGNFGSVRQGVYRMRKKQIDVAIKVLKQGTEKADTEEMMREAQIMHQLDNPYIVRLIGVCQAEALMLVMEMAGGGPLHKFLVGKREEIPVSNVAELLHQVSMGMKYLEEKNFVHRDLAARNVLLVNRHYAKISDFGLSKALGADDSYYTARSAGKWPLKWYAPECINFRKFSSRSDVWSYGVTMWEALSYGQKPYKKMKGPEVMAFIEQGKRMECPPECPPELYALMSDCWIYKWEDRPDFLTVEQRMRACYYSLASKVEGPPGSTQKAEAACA
ANKK1 (human), sequence (Q8NFD2 whole entry, looked up): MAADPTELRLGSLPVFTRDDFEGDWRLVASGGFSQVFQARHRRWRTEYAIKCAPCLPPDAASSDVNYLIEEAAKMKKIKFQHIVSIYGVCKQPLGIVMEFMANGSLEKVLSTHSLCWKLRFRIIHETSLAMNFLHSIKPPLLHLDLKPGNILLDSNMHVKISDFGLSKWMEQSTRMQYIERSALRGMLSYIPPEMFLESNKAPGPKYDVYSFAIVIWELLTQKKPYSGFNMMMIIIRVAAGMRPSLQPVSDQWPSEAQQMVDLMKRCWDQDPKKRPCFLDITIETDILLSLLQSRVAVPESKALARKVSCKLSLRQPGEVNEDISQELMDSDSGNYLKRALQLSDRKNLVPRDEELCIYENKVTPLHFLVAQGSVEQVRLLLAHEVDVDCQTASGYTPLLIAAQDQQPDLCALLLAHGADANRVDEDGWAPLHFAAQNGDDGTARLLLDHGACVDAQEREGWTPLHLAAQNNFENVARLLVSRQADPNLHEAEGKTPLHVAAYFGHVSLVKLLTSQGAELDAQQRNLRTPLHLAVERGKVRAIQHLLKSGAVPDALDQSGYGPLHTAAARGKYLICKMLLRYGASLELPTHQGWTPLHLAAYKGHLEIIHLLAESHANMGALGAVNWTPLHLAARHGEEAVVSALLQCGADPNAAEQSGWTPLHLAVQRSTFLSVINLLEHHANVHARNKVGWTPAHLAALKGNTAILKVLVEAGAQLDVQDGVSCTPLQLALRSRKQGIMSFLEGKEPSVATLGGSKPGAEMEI
GRK7 (human), sequence (Q8WTQ7 whole entry, looked up): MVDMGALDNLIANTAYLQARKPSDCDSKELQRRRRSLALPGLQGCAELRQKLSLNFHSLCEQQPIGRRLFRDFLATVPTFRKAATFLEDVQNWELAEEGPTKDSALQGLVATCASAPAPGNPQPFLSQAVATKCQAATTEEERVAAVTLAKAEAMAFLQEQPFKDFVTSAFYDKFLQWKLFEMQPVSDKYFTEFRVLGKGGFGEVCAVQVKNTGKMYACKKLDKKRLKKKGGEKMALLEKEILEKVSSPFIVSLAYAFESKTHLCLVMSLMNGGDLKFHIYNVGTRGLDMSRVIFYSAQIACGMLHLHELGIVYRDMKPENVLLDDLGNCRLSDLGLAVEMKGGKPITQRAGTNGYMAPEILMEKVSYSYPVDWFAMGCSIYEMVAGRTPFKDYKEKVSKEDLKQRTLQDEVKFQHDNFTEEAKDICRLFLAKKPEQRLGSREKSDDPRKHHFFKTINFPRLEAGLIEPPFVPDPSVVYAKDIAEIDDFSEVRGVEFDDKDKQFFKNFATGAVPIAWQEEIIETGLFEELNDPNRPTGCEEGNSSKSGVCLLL
MAP2K1 (human), sequence (Q02750 whole entry, looked up): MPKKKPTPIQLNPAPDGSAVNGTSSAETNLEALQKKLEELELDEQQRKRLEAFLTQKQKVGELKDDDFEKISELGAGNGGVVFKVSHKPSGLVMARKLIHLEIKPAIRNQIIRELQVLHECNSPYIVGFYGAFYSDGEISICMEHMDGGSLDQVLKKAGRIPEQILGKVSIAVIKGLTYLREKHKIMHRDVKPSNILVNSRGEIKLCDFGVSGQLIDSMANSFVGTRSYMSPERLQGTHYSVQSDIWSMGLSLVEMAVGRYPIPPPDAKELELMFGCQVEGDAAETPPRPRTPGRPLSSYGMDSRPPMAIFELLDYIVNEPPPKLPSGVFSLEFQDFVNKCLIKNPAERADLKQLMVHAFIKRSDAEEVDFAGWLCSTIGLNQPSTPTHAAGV
RIPK1 (human), sequence (Q13546 whole entry, looked up): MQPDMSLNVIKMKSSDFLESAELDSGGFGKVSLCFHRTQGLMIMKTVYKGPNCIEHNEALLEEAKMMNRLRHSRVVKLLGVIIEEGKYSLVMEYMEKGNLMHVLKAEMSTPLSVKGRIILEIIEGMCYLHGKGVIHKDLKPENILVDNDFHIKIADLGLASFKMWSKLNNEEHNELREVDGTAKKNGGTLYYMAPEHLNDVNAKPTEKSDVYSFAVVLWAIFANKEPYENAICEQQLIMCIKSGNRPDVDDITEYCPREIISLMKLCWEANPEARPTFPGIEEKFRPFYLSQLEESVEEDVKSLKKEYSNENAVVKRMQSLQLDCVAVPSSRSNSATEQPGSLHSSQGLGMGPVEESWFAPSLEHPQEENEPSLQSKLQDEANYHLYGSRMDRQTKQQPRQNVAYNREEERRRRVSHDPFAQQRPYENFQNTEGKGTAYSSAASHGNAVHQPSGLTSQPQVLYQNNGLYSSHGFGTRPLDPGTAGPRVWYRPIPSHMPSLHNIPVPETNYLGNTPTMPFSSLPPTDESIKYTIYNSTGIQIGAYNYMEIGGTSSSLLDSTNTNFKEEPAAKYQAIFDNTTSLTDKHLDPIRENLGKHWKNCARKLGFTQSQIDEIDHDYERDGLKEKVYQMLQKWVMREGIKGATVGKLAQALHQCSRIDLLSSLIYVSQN
DAPK3 (human), sequence (O43293 whole entry, looked up): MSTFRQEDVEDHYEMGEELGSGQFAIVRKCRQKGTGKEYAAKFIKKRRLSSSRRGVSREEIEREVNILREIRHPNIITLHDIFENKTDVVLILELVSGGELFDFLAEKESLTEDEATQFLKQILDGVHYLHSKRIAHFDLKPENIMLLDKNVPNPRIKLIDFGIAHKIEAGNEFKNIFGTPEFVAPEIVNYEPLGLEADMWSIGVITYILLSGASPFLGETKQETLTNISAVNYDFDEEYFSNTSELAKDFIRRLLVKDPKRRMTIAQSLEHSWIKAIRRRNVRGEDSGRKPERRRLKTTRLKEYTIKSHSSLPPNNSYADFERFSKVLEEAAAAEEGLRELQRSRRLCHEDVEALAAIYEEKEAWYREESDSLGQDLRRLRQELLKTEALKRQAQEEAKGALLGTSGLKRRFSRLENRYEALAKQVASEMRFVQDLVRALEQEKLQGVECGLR

SMILES	kinase still bound, per cent of control (KIT (human)) [%]	kinase still bound, per cent of control (MARK4 (human)) [%]	kinase still bound, per cent of control (PI4KB (human)) [%]	kinase still bound, per cent of control (ANKK1 (human)) [%]	kinase still bound, per cent of control (HIPK4 (human)) [%]	kinase still bound, per cent of control (MAP2K1 (human)) [%]	kinase still bound, per cent of control (DYRK1B (human)) [%]	kinase still bound, per cent of control (MAPK8 (human)) [%]	kinase still bound, per cent of control (MATK (human)) [%]	kinase still bound, per cent of control (STK17B (human)) [%]	kinase still bound, per cent of control (CDC42BPG (human)) [%]	kinase still bound, per cent of control (PIK3CG (human)) [%]	kinase still bound, per cent of control (CAMK4 (human)) [%]	kinase still bound, per cent of control (SYK (human)) [%]	kinase still bound, per cent of control (PIP4K2C (human)) [%]	kinase still bound, per cent of control (EPHB1 (human)) [%]	kinase still bound, per cent of control (NUAK2 (human)) [%]	kinase still bound, per cent of control (LRRK2 (human)) [%]	kinase still bound, per cent of control (SBK1 (human)) [%]	kinase still bound, per cent of control (PRKCI (human)) [%]	further results
O=c1cc(N2CCOCC2)oc2c(-c3cccc4c3sc3ccccc34)cccc12	80	100	100	100	74	76	85	88	99	100	100	1.3	100	100	89	100	100	100	100	100	kinase still bound, per cent of control (RIPK1 (human)): 100%; kinase still bound, per cent of control (IRAK3 (human)): 41%; kinase still bound, per cent of control (ERN1 (human)): 93%; kinase still bound, per cent of control (EPHA5 (human)): 100%; kinase still bound, per cent of control [1]: 66%; kinase still bound, per cent of control (GRK7 (human)): 92%; kinase still bound, per cent of control [2]: 100%; kinase still bound, per cent of control (MAP2K7 (human)): 100%; kinase still bound, per cent of control (CSNK2A2 (human)): 100%; kinase still bound, per cent of control (DAPK3 (human)): 92%; kinase still bound, per cent of control (MTOR (human)): 18%; kinase still bound, per cent of control (DCLK1 (human)): 84%; kinase still bound, per cent of control (PLK2 (human)): 100%; kinase still bound, per cent of control (ZAP70 (human)): 100%; kinase still bound, per cent of control (MAP3K3 (human)): 92%; kinase still bound, per cent of control (EPHA1 (human)): 92%; kinase still bound, per cent of control (BRAF (human)): 100%; kinase still bound, per cent of control (IKBKB (human)): 100%; kinase still bound, per cent of control (CDK11B (human)): 95%; kinase still bound, per cent of control (PAK7 (human)): 96%
N#CCNC(=O)c1ccc(-c2ccnc(Nc3ccc(N4CCOCC4)cc3)n2)cc1	100	42	17	100	12	100	90	1	85	2.6	96	2.4	100	32	54	91	8.9	48	46	75	kinase still bound, per cent of control (RIPK1 (human)): 63%; kinase still bound, per cent of control (IRAK3 (human)): 22%; kinase still bound, per cent of control (ERN1 (human)): 100%; kinase still bound, per cent of control (EPHA5 (human)): 87%; kinase still bound, per cent of control (GRK7 (human)): 100%; kinase still bound, per cent of control [2]: 100%; kinase still bound, per cent of control (MAP2K7 (human)): 100%; kinase still bound, per cent of control (CSNK2A2 (human)): 6.2%; kinase still bound, per cent of control (DAPK3 (human)): 11%; kinase still bound, per cent of control (MTOR (human)): 100%; kinase still bound, per cent of control (DCLK1 (human)): 52%; kinase still bound, per cent of control (PLK2 (human)): 51%; kinase still bound, per cent of control (ZAP70 (human)): 91%; kinase still bound, per cent of control (MAP3K3 (human)): 51%; kinase still bound, per cent of control (EPHA1 (human)): 100%; kinase still bound, per cent of control (BRAF (human)): 74%; kinase still bound, per cent of control (IKBKB (human)): 0.15%; kinase still bound, per cent of control (CDK11B (human)): 66%; kinase still bound, per cent of control (PAK7 (human)): 56%
